In article PMC5118696, “Identification of inhibitors that dually target the new permeability pathway and dihydroorotate dehydrogenase in the blood stage of Plasmodium falciparum” (Scientific Reports, 2016):
Like-named read-outs stand apart in the source and are kept apart here.

Columns and labels:
[1] = tested on: Hyp1-NLuc Plasmodium falciparum-infected erythrocytes (new permeability pathway, NPP); test: microbe, parasite or virus in culture; conditions: Erythrocyte, 0.33 h, read-out: % of control remaining
[2] = tested on: Hyp1-NLuc Plasmodium falciparum-infected erythrocytes (new permeability pathway, NPP); test: microbe, parasite or virus in culture; conditions: Erythrocyte, 0.33 h, read-out: Mean RLU at 28 min (As % of DMSO control)

Structure (SMILES) | activity at 2 µM [1] | activity at 2 µM [2]
CCC(C)NCC(O)(c1ccc(Cl)cc1)c1ccc(Cl)cc1 (stereo not shown) [MMV665928] | 121% | 106%
CC(C)CCNCC(O)Cn1c2ccccc2c2ccccc21 (stereo not shown) [MMV006787] | 98.6% | 97.5%
O=C(NC1CCCC1)c1ccc(N2CCC(NCc3cccc(C(F)(F)F)c3)CC2)cc1 [MMV666070] | 123% | 111%
COc1ccc(CN2CCCC(C(=O)c3ccc(C(F)(F)F)cc3)C2)c(O)c1 (stereo not shown) [MMV666060] | 114% | 103%
CCOc1cc(CNC(C)C(O)c2ccccc2)cc(Cl)c1OCC (stereo not shown) [MMV396633] | 114% | 113%
Cc1cccc(Nc2nc(N)c3ccccc3n2)c1 [MMV019110] | 106% | 105%
CC(C)=CCN1CCC(C(=O)Nc2ccc(-c3nc4ccccc4[nH]3)cc2)CC1 [MMV665946] | 121% | 106%
O=C(NNc1cc(N2CCCC2)nc(N2CCCC2)n1)c1ccccc1 [MMV396770] | 88.7% | 101%
CCOc1ccc(N2C(N)=NC(N)=NC2(C)C)cc1 [MMV667486] | 98% | 98.6%
COc1ccc2nc(C)cc(Nc3ccc(Cl)cc3)c2c1 [MMV007875] | 99.5% | 98.8%
COc1cc(OC)c(N(C)C(=O)c2cc3c(s2)-c2ccccc2S(=O)(=O)C3)cc1Cl [MMV006427] | 104% | 105%
Cc1ccnc(NC(c2cccc(OCc3ccccc3)c2)c2ccc3cccnc3c2O)c1 (stereo not shown) [MMV000720] | 108% | 102%
COc1cccc(Cn2c(Oc3ccccc3)nc3c2c(=O)n(C)c(=O)n3C)c1 [MMV396705] | 101% | 102%
CCOC(=O)c1ccc2nc(-c3ccccc3)cc(O)c2c1 [MMV006457] | 93.7% | 104%
Cc1ccc(S(=O)(=O)c2c(COC(=O)c3cccc(C)c3)c(-c3ccccc3)nn2C)cc1 [MMV665936] | 100% | 97%
Oc1ccc(Br)cc1CN1CCN(Cc2cccc(F)c2)CC1 [MMV000356] | 98.9% | 101%
c1ccc2c(NCCc3c[nH]c4ccccc34)c3ccccc3nc2c1 [MMV006513] | 106% | 96.2%
CCc1ccc(Nc2cc(C)nc3nc(C)nn23)cc1 [MMV007374] | 114% | 113%
CCN(CC)c1ccc(NC(=O)c2cccs2)cc1 [MMV009060] | 111% | 103%
COC(=O)c1ccc(Cl)c2c1C1C=CCC1C(c1cccc3ccccc13)N2 (stereo not shown) [MMV667489] | 100% | 103%
Cc1c(C)n(CC(O)CNC2CCCCC2C)c2ccccc12 (stereo not shown) [MMV665806] | 108% | 106%
Fc1ccc2[nH]c3c(NCCCN4CCOCC4)ncnc3c2c1 [MMV019871] | 102% | 106%
COc1ccccc1CNC(=O)C1c2ccccc2C(=O)N(CC(C)C)C1c1cccs1 (stereo not shown) [MMV000648] | 105% | 108%
CCN(CC)CCNc1ncnc2c1[nH]c1ccc(Br)cc12 [MMV006545] | 110% | 120%
Cc1cc(NCCN2CCCCC2)c2ccc3ccccc3c2n1 [MMV006203] | 99.9% | 103%
Cc1ccc(Nc2nc(-c3ccccn3)cs2)cc1 [MMV007907] | 103% | 106%
O=C(Nc1ccc(C23CC4CC(CC(c5ccccc5)(C4)C2)C3)cc1)c1cccs1 [MMV007574] | 111% | 106%
COc1ccc(C)c2sc(N(Cc3cccnc3)C(=O)c3ccc(C#N)cc3)nc12 [MMV001241] | 100% | 101%
O=C(Nc1ccc(N2CCN(Cc3ccccc3)CC2)cc1)c1cccs1 [MMV019670] | 112% | 113%
